According to ChEMBL document CHEMBL5352436, “Triterpenoid pyrazines and pyridines - Synthesis, cytotoxicity, mechanism of action, preparation of prodrugs” (Eur J Med Chem, 2022):

Experiments:
CEM-DNR = assay: Cytotoxicity against human CEM-DNR cells assessed as reduction in cell viability incubated for 72 hrs by MTS assay; assay type: functional, cell-based
HCT-116 = assay: Cytotoxicity against human HCT-116 cells assessed as reduction in cell viability incubated for 72 hrs by MTS assay; assay type: functional, cell-based; details: HCT-116, 72 h
A549 = assay: Cytotoxicity against human A549 cells assessed as reduction in cell viability incubated for 72 hrs by MTS assay; assay type: functional, cell-based; details: A549, 72 h
K562 = assay: Cytotoxicity against human K562 cells assessed as reduction in cell viability incubated for 72 hrs by MTS assay; assay type: functional, cell-based; details: K562, 72 h
CCRF-CEM = assay: Cytotoxicity against human CCRF-CEM cells assessed as reduction in cell viability incubated for 72 hrs by MTS assay; assay type: functional, cell-based
[1] = Cytotoxicity against human HCT116-p53-null cells assessed as reduction in cell viability incubated for 72 hrs by MTS assay; assay type: functional, cell-based
[2] = Cytotoxicity against human MRC5 cells assessed as reduction in cell viability incubated for 72 hrs by MTS assay; assay type: toxicity, cell-based
U2OS = assay: Cytotoxicity against human U2OS cells assessed as reduction in cell viability incubated for 72 hrs by MTS assay; assay type: functional, cell-based
[3] = Cytotoxicity against human K562-Tax cells assessed as reduction in cell viability incubated for 72 hrs by MTS assay; assay type: functional, cell-based
[4] = Cytotoxicity against human BJ cells assessed as reduction in cell viability incubated for 72 hrs by MTS assay; assay type: toxicity, cell-based

Row | Structure (SMILES) | IC50 (CEM-DNR) [µM] | IC50 (HCT-116) [µM] | IC50 (A549) [µM] | IC50 (K562) [µM] | IC50 (CCRF-CEM) [µM] | IC50 [1] [µM] | IC50 at 72 h [2] [µM] | IC50 (U2OS) [µM] | IC50 [3] [µM] | IC50 at 72 h [4] [µM]
1 | C[C@H]1[C@H](C)CC[C@]2(C(=O)O)CC[C@]3(C)C(=CC[C@@H]4[C@@]5(C)Cc6cccnc6C(C)(C)[C@@H]5CC[C@]43C)[C@H]12 | 40 | > 50 | > 50 | 32 | 38 | > 50 | > 50 | > 50 | 47 | > 50
2 | Cc1oc(=O)oc1COC(=O)[C@]12CC[C@@H](C(C)C)[C@@H]1[C@H]1CC[C@@H]3[C@@]4(C)Cc5cccnc5C(C)(C)[C@@H]4CC[C@@]3(C)[C@]1(C)CC2 | 50 | > 50 | > 50 | 0.043 | 46 | > 50 | > 50 | > 50 | > 50 | > 50
3 | CC1=CC[C@]2(C(=O)O)CC[C@]3(C)[C@H](CC[C@@H]4[C@@]5(C)Cc6nccnc6C(C)(C)[C@@H]5CC[C@]43C)[C@H]2[C@@H]1C | 10 | 48 | 44 | 18 | 7.2 | 50 | > 50 | 46 | 10 | > 50
4 | C=C(C)[C@@H]1CC[C@]2(C(=O)OCc3oc(=O)oc3C)CC[C@]3(C)[C@H](CC[C@@H]4[C@@]5(C)Cc6cccnc6C(C)(C)[C@@H]5CC[C@]43C)[C@@H]12 | 48 | > 50 | 50 | 0.037 | 35 | > 50 | > 50 | > 50 | 49 | > 50
5 | CC1(C)C=C2[C@H]3CC[C@@H]4[C@@]5(C)Cc6nccnc6C(C)(C)[C@@H]5CC[C@@]4(C)[C@]3(C)CC[C@@]2(C(=O)O)CC1 | 29 | 40 | > 50 | > 50 | 15 | > 50 | > 50 | > 50 | 25 | > 50
6 | C#CCOC(=O)[C@]12CC[C@@H](C(=C)C)[C@@H]1[C@H]1CC[C@@H]3[C@@]4(C)CC[C@H](O)C(C)(C)[C@@H]4CC[C@@]3(C)[C@]1(C)CC2 | 40 | 33 | 43 | 43 | 24 | 31 | 26 | 31 | 36 | 32
7 | C=C(C)[C@@H]1CC[C@]2(C(=O)O)CC[C@]3(C)[C@H](CC[C@@H]4[C@@]5(C)CCC(=O)C(C)(C)[C@@H]5CC[C@]43C)[C@@H]12 [BETUNOLIC ACID] | 11 |  |  |  |  | 49 |  |  | 15 | 39
8 | C#CCOC(=O)[C@]12CC[C@@H](C(=C)C=O)[C@@H]1[C@H]1CC[C@@H]3[C@@]4(C)CC[C@H](O)C(C)(C)[C@@H]4CC[C@@]3(C)[C@]1(C)CC2 | 1.4 | 1.7 | 1.3 | 1.8 | 0.88 | 1.5 | 1.7 | 1.6 | 1.3 | 7.1
9 | CC1=CC[C@]2(C(=O)O)CC[C@]3(C)C(=CC[C@@H]4[C@@]5(C)Cc6cccnc6C(C)(C)[C@@H]5CC[C@]43C)[C@H]2[C@@H]1C | 11 | 34 | 20 | 12 | 6.3 | 34 | > 50 | 35 | 13 | > 50
10 | CC1(C)C=C2[C@H]3CC[C@@H]4[C@@]5(C)Cc6cccnc6C(C)(C)[C@@H]5CC[C@@]4(C)[C@]3(C)CC[C@@]2(C(=O)O)CC1 | 14 | 47 | > 50 | > 50 | 8 | > 50 | > 50 | > 50 | 15 | > 50
11 | CC1(C)CC[C@]23CC[C@]4(C)[C@H](CC[C@@H]5[C@@]6(C)Cc7nccnc7C(C)(C)[C@@H]6CC[C@]54C)[C@H]2[C@H]1OC3 | > 50 | > 50 | > 50 | > 50 | > 50 | > 50 | > 50 | > 50 | > 50 | > 50
12 | CC1(C)CC[C@]23CC[C@]4(C)[C@H](CC[C@@H]5[C@@]6(C)CCC(=O)C(C)(C)[C@@H]6CC[C@]54C)[C@H]2[C@H]1OC3 | > 50 | > 50 | > 50 | > 50 | > 50 | > 50 | > 50 | > 50 | > 50 | > 50
13 | C[C@H]1[C@H](C)CC[C@]2(C(=O)O)CC[C@]3(C)C(=CC[C@@H]4[C@@]5(C)CCC(=O)C(C)(C)[C@@H]5CC[C@]43C)[C@H]12 [URSONIC ACID] | 19 | 47 | 50 | > 50 | 16 | > 50 | > 50 | > 50 | 27 | > 50
14 | C[C@H]1[C@H](C)CC[C@]2(C(=O)O)CC[C@]3(C)C(=CC[C@@H]4[C@@]5(C)Cc6nccnc6C(C)(C)[C@]5(C)CC[C@]43C)[C@H]12 | 17 | 50 | > 50 | > 50 | 19 | > 50 | > 50 | > 50 | 44 | > 50
15 | C=C(C)[C@@H]1CC[C@]2(C(=O)OCc3oc(=O)oc3C)CC[C@]3(C)[C@H](CC[C@@H]4[C@@]5(C)Cc6nccnc6C(C)(C)[C@@H]5CC[C@]43C)[C@@H]12 | 0.49 | 40 | 10 | > 50 | 3.6 | 49 | > 50 | 45 | 13 | > 50
16 | CC1(C)CC[C@]2(C(=O)O)CC[C@]3(C)C(=CC[C@@H]4[C@@]5(C)Cc6nccnc6C(C)(C)[C@@H]5CC[C@]43C)[C@@H]2C1 | 14 | 50 | 50 | > 50 | 18 | > 50 | > 50 | > 50 | 34 | > 50
17 | CC1=CC[C@]2(C(=O)O)CC[C@]3(C)[C@H](CC[C@@H]4[C@@]5(C)CCC(=O)C(C)(C)[C@@H]5CC[C@]43C)[C@H]2[C@@H]1C | 11 | 32 | 24 | 8.5 | 6.5 | 35 | 33 | 24 | 28 | 35
18 | CC(C)[C@@H]1CC[C@]2(C(=O)O)CC[C@]3(C)[C@H](CC[C@@H]4[C@@]5(C)CCC(=O)C(C)(C)[C@@H]5CC[C@]43C)[C@@H]12 [DIHYDROBETULONIC ACID] | 48 |  |  |  | 6.3 | 36 | > 50 | 27 | 11 | > 50
19 | CC1(C)CC[C@]2(C(=O)O)CC[C@]3(C)C(=CC[C@@H]4[C@@]5(C)Cc6cccnc6C(C)(C)[C@@H]5CC[C@]43C)[C@@H]2C1 | > 50 | > 50 | > 50 | 13 | 39 | > 50 | > 50 | > 50 | > 50 | > 50
20 | CC1(C)C=C2[C@H]3CC[C@@H]4[C@@]5(C)CCC(=O)C(C)(C)[C@@H]5CC[C@@]4(C)[C@]3(C)CC[C@@]2(C(=O)O)CC1 [MORONIC ACID] | 17 | 45 | 47 | > 50 | 17 | > 50 | > 50 | > 50 | 21 | > 50
21 | CC1(C)CC[C@]23CC[C@]4(C)[C@H](CC[C@@H]5[C@@]6(C)Cc7cccnc7C(C)(C)[C@@H]6CC[C@]54C)[C@H]2[C@H]1OC3 | > 50 | > 50 | > 50 | > 50 | > 50 | > 50 | > 50 | > 50 | > 50 | > 50
22 | CC1(C)CC[C@]2(C(=O)O)CC[C@]3(C)C(=CC[C@@H]4[C@@]5(C)CCC(=O)C(C)(C)[C@@H]5CC[C@]43C)[C@@H]2C1 [OLEANONIC ACID] | 17 |  |  | > 50 | 9.5 | > 50 | > 50 |  | 21 | > 50
